Here are results for 41 compounds from PubChem BioAssay (NCI).

Values joined by “and” are separate entries in the source; they are usually repeats but may differ in a detail not shown here. Equal entries are not always repeated.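 Dose response: 5 concentrations. Exposure: 48 h. Format: 96-well plates. Endpoint: linear interpolation; highest concentration if not reached. The concentration for 50% growth inhibition is given as GI50. TGI: total growth inhibition.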

The assay concerns MDA-MB-468 breast. Put plainly: NCI tumour cell line growth inhibition, 48 h.
In the case of `O=c1oc2ccc(-c3ccc(F)cc3F)cc2c(=O)n1-c1cccc(C(F)(F)F)c1`, the GI50 is 2.28 µM and 1.13 µM; the TGI is 5.83 µM and 3.43 µM.
As for `COC(=O)c1c2c(c(C)[n+]([O-])c1C)C(=O)C=C(NCc1ccc(F)cc1)C2=O`, the GI50 was 0.284 µM and the TGI was 0.978 µM.
For `COc1ccc2nc3ccccc3c(NCc3ccc(F)cc3)c2c1`, the GI50 was 1.07 µM and the TGI amounted to 2.93 µM.
On to `NC(N)=N/N=C/c1c(Cl)cccc1Cl`, for which the GI50 was 12.4 µM and the TGI amounted to 26.5 µM.
Consider `COc1cc(Cl)cc(-c2nn(-c3cccc(NC(=O)c4ccc(N5CCOCC5)c(C(F)(F)F)c4)c3)cc2-c2ccncc2)c1`, for which the GI50 was 12.1 µM and the TGI is over 100 µM.
As for `Cc1nnc(Nc2ccc(NC(=O)Nc3ccc(Cl)cc3)cc2)c2ccccc12`, the GI50 was 2.84 µM and the TGI came to 7.43 µM.
With `CC(NCCC(c1ccccc1)c1ccccc1)c1ccccc1` (configuration not stated), the GI50 is 1.3 µM and the TGI was 2.64 µM.
Consider `C[C@@H]1C[C@@H]([C@@H](CC2CC(=O)NC(=O)C2)OC(=O)CC(=O)c2ccccc2)C(=O)[C@@H](C)C1`, for which the GI50 was 1.17 µM and the TGI is over 100 µM.
The corresponding values for `CCn1c(O)c(/C=N/NC(=O)C(C)c2ccc(CC(C)C)cc2)sc1=S` (configuration not stated) are 0.378 µM and 12 µM.
The corresponding values for `Nc1ncn([C@@H]2O[C@H](CO)[C@@H](O)[C@H]2O)c(=O)n1` are 1.03 µM and 5.34 µM.
In the case of `COC(=O)[C@]12CC[C@@H](C)[C@H](C)[C@@H]1C1=CC[C@@H]3[C@@]4(C)C[C@@H](O)[C@H](O)[C@@](C)(CO)C4=CC[C@@]3(C)[C@]1(C)CC2`, the GI50 is 14.2 µM and the TGI was 29.7 µM.
Turning to `CC(=O)ON1CCCC(P(=O)(OCCSC(=O)C(C)(C)C)OCCSC(=O)C(C)(C)C)C1=O` (configuration not stated), the GI50 is 2.67 µM and the TGI was determined as 23.6 µM.
`Nc1ncc(-c2ccc3ncnc(Nc4ccc(F)c(Cl)c4)c3c2)cn1`: the GI50 was 0.229 µM and the TGI is 0.833 µM.
Take `CCc1cc(OC(=O)N2CCC(N3CCCCC3)CC2)ccc1Nc1cc(-c2ccc(-n3cccn3)cc2)[nH]n1`: the GI50 is 1.74 µM and the TGI came out at 3.65 µM.
For the compound `NC(=O)c1c(NC(=O)c2ccccc2)sc2c1CCC(=O)C2`, the GI50 is 2.46 µM and the TGI came out at 6.59 µM.
`O=[N+]([O-])c1ccc(-c2nnc(SCc3ccc(O)c4ncccc34)n2-c2ccccc2)cc1`: the GI50 was 0.577 µM and the TGI was 4.46 µM.
The corresponding values for `COc1cnc2c(c1)C(=O)c1c-2n(CCCNC2=NCCS2)c(=O)c2cc([N+](=O)[O-])ccc12` are 0.0283 µM and 1.53 µM.
As to `N=c1c2c(-c3ccccc3)c(-c3ccccc3)n(Cc3ccccc3)c2ncn1C1CCC(O)CC1` (configuration not stated), the GI50 is 0.631 µM and the TGI is 3.23 µM.
Take `O=C(Cc1ccc(F)c(Cl)c1)Nc1cc(C2(C(F)(F)F)CC2)nn1CC1CCCCC1`: the GI50 was 2.68 µM and the TGI is 9.28 µM.
As to `CCOC(=O)N[C@H]1CCc2cc(OC)c(OC)c(OC)c2-c2ccc(SC)c(=O)cc21`, the GI50 is under 0.01 µM and the TGI was over 21.3 µM.
With `Clc1cc2c(c(CSc3nc4ccccc4n4cccc34)c1)OCOC2`, the GI50 was 2.16 µM and the TGI was over 100 µM.
Regarding `O=C(NC[C@H](O)CN1CCc2ccccc2C1)c1cc(NC2COC2)ncn1`, the GI50 was 4.25 µM and the TGI was 24.5 µM.
In the case of `CCN1CCN(c2cc(C)c3cc(NC(=O)c4ccc(OC)c(OC)c4)ccc3n2)CC1`, the GI50 was 17.7 µM and the TGI is over 100 µM.
Turning to `O=C(Nc1ccc(Br)cc1F)c1cc(Cl)ccc1O`, the GI50 was 0.871 µM and the TGI amounted to 4.78 µM.
The corresponding values for `CCOC(=O)Nc1cc2c(c(N)n1)N=C(c1ccccc1)CO2` are 0.0427 µM and 0.394 µM.
The corresponding values for `C[n+]1c(/C=C/c2c(O)ccc3ccccc23)ccc2ccccc21` are 1.46 µM and 7.08 µM.
In the case of `COc1cc(N=Nc2ccc(O)c3ncccc23)c2ncccc2c1`, the GI50 is 2.27 µM and the TGI turned out to be 6.64 µM.
The corresponding values for `C[C@@H](Nc1c(C#N)cnc2ccc(-c3cnc(Cl)c(NS(C)(=O)=O)c3)cc12)c1ccccc1` are 0.0745 µM and 1.23 µM.
The corresponding values for `CN(C)CC[C@H](CSc1ccccc1)Nc1ccc(S(=O)(=O)NC(=O)c2ccc(N3CCN(Cc4ccccc4-c4ccc(Cl)cc4)CC3)cc2)cc1[N+](=O)[O-]` are 1.38 µM and 3.65 µM.
The corresponding values for `N#Cc1nn(-c2cc(=O)[nH]c3ccc(Cl)cc23)c(N)c1C#N` are over 100 µM and over 100 µM.
As for `COc1ccc(-c2nnc3n(C)c(=O)c4ccccc4n23)cc1N`, the GI50 is 2.33 µM and the TGI was over 100 µM.
As to `CC(C)(/C=C(\C#N)C(=O)N1CCC[C@@H](n2nc(-c3ccc(Oc4ccccc4)cc3F)c3c(N)ncnc32)C1)N1CCN(C2COC2)CC1`, the GI50 is 3.63 µM and the TGI came to 14.9 µM.
With `CN(C)C1CCN(C(=O)c2ccc(NC(=O)Nc3ccc(-c4nc(N5CCOCC5)c5cccn5n4)cc3)cc2)CC1`, the GI50 is 0.0186 µM and the TGI was 0.0866 µM.
As to `CN(C)CCCNc1c2ccc(Cl)cc2nc2c1oc1ccc(Cl)cc12`, the GI50 is 8.02 µM and the TGI is 21.8 µM.
In the case of `O=C(/C=C/c1ccc[nH]1)c1ccc(-n2ccc(C(F)(F)F)n2)cc1`, the GI50 is over 54.6 µM and the TGI was over 100 µM.
As for `CN1CCN(c2ccc(Nc3cc(-c4cccc(-n5ccc6cc(C7CC7)cc(F)c6c5=O)c4CO)cn(C)c3=O)nc2)CC1`, the GI50 was 3.15 µM and the TGI worked out at 17.1 µM.
Consider `CNCCOC(=O)/C=C1\CC[C@H]2[C@@H]([C@@H](O)C(=O)[C@@H]3[C@]2(C)CC[C@H](O)[C@]3(C)C(=O)OC)[C@H]1C`, for which the GI50 was 1.44 µM and the TGI is 3.69 µM.
Take `Cc1nc(Nc2cccnc2)sc1C(=O)/C=C/c1ccc(F)cc1`: the GI50 is 3.22 µM and the TGI was 11.1 µM.
For the compound `COc1cnc2c(c1)C(=O)c1c-2n(CCCN2CCOCC2)c(=O)c2cc(Cl)ccc12`, the GI50 is 0.183 µM and the TGI stood at 0.544 µM.
For the compound `O=C(Nc1cc(C(F)(F)F)cc(C(F)(F)F)c1)c1cc(Cl)ccc1O`, the GI50 was 0.195 µM and 0.238 µM; the TGI is 0.715 µM and 0.799 µM.
As for `Cc1cc(N[C@@H]2CCC[C@H](Nc3ccnc4cc(Cl)ccc34)C2)nc(N2CCCCCC2)n1`, the GI50 is 1.4 µM and the TGI worked out at 3.11 µM.
